From patent US20090170886A1 (Pfizer Inc, priority 2005, published 2009)
Read-outs that look alike come from different tables or passages of the source.

Molecular target: T1, hAR (human androgen receptor, baculovirus/Sf9 generated extracts) (Homo sapiens, UniProt P10275)
T1 construct: made in house; host or cells: baculovirus/Sf9 insect cells (crude extract)
T1 sequence (P10275 1-920): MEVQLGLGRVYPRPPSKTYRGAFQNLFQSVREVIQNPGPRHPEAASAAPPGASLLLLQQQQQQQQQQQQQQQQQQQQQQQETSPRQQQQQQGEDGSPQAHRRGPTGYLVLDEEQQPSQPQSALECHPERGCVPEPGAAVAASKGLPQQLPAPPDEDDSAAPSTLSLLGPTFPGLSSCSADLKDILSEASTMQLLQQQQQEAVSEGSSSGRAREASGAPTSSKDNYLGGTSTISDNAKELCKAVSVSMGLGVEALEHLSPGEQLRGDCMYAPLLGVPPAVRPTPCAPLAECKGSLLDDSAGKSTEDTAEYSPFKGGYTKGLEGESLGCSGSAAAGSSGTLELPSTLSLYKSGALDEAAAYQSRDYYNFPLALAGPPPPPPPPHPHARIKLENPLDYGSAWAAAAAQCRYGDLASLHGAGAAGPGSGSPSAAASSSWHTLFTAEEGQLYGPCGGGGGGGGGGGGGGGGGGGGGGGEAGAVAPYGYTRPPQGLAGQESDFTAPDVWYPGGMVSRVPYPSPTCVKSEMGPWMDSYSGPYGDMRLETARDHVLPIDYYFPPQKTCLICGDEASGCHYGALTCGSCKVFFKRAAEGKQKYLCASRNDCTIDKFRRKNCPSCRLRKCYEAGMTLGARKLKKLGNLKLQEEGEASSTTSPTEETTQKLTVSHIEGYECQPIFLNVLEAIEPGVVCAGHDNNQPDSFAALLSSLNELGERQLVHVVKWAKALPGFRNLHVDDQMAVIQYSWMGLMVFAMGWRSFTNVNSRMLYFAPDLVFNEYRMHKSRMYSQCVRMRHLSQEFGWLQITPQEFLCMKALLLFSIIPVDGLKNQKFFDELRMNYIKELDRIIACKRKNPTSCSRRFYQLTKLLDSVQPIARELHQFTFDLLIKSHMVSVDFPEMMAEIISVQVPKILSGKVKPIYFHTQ
Assay: AR Binding Assay (competitive binding with 3H-DHT tracer)
Conditions: 1 nM 3H-DHT, one hour at 4° C., mean of multiple tests
Method: The compounds of Formula I have affinity for the androgen receptor. […] The description below describes how the assay was carried out.
Competitive binding analysis was performed on baculovirus/Sf9 generated hAR extracts in the presence or absence of different concentrations of test agent and a fixed concentration of ^3H-dihydrotestosterone (^3H-DHT) as tracer. This binding assay method is a modification of a protocol previously described (Liao S., et. al., J. Steroid Biochem., 20:11-17, 1984). Briefly, progressively decreasing concentrations of compounds are incubated in the presence of hAR extract (Chang et al., P.N.A.S., Vol. 89, pp. 5546-5950, 1992), hydroxylapatite, and 1 nM ^3H-DHT for one hour at 4° C. Subsequently, the binding reactions are washed three times to completely remove excess unbound ^3H-DHT. hAR bound ^3H-DHT levels are determined in the presence of compounds (i.e. competitive binding) and compared to levels bound when no competitor is present (i.e. maximum binding). Compound binding affinity to the hAR is expressed as the concentration of compound at which one half of the maximum binding is inhibited. Table II below provides the results that were obtained for selected compounds (reported data is the mean of multiple tests as shown below).

[1] = hAR extract, read-out: AR Binding IC50

Row | SMILES | IC50 [1] [nM] | IC50 (AR Binding IC50, hAR extract) [nM]
1 | CC(Oc1ccc(C#N)c(C(F)(F)F)c1)c1ccc(Cl)cc1 (centres unmarked) [Example 23, 4-[1-(4-Chloro-phenyl)-ethoxy]-2-trifluoromethyl-benzonitrile] | 307 | 
2 | C[C@H](Oc1ccc(C#N)cc1Cl)c1ccccc1 [Example 39, (S)-3-Chloro-4-(1-phenyl-ethoxy)-benzonitrile] |  | 410
3 | CCC(C)(Oc1ccc(C#N)c(C(F)(F)F)c1)c1ccccc1 (centres unmarked) [Example 47, 4-(1-Methyl-1-phenyl-propoxy)-2-trifluoromethyl-benzonitrile] | 461 | 
4 | Cc1cccc(COc2ccc(C#N)c(C(F)(F)F)c2)c1 [Example 52, 4-(3-Methyl-benzyloxy)-2-trifluoromethyl-benzonitrile] | 302 | 
5 | CCCC(Oc1ccc(C#N)c(C(F)(F)F)c1)c1cccc(C)n1 (centres unmarked) [Example 86, 4-[1-(6-Methyl-pyridin-2-yl)-butoxy]-2-trifluoromethyl-benzonitrile] | 330 | 
6 | CC(Oc1ccc(C#N)c(C(F)(F)F)c1)c1cccc(OC2CCCCO2)c1 (centres unmarked) [Example 7, 4-{1-[3-(Tetrahydro-2H-pyran-2-yloxy)phenyl]ethoxy}-2-(trifluoromethyl)benzonitrile] | 383 | 
7 | Cc1cccc(C)c1C(C)Oc1ccc(C#N)c(Cl)c1 (centres unmarked) [Example 63, 2-Chloro-4-[1-(2,6-dimethyl-phenyl)-ethoxy]-benzonitrile] | 328 | 
8 | Cc1ccccc1C(C)Oc1ccc(C#N)c(C(F)(F)F)c1 (centres unmarked) [Example 27, 4-(1-o-Tolyl-ethoxy)-2-trifluoromethyl-benzonitrile] | 439 | 
9 | CC(Oc1ccc(C#N)c(C(F)(F)F)c1)c1cccc(C(F)(F)F)c1 (centres unmarked) [Example 32, 2-Trifluoromethyl-4-[1-(3-trifluoromethyl-phenyl)-ethoxy]-benzonitrile] | 214 | 
10 | COc1ccc(CCOc2ccc(C#N)c(C(F)(F)F)c2)cc1 [Example 76, 4-[2-(4-Methoxy-phenyl)-ethoxy]-2-trifluoromethyl-benzonitrile] | 281 | 
11 | COc1cc(OC(C)Cc2ccccc2)ccc1C#N (centres unmarked) [Example 71A, 2-Methoxy-4-(1-methyl-2-phenyl-ethoxy)-benzonitrile] | 306 | 
12 | CCC(Oc1ccc(C#N)c(C(F)(F)F)c1)c1cccc(C)n1 (centres unmarked) [Example 87, 4-[1-(6-Methyl-pyridin-2-yl)-propoxy]-2-trifluoromethyl-benzonitrile] | 483 | 
13 | CC(Cc1ccccc1)(Oc1ccc(C#N)cc1Cl)c1ccccc1 (centres unmarked) [Example 42, 3-Chloro-4-(1-methyl-1,2-diphenyl-ethoxy)-benzonitrile] | 377 | 
14 | C[C@@H](Oc1ccc(C#N)cc1Cl)c1ccccc1 [Example 38, (R)-3-Chloro-4-(1-phenyl-ethoxy)-benzonitrile] |  | 281
